#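 Dose response: 5 concentrations. Exposure: 48 h. Format: 96-well plates. Endpoint: linear interpolation; highest concentration if not reached. At the GI50, growth is halved.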 Calls of active or inactive are those of the source. No stated cut-off is given here; in the data, active = GI50 up to about 1.1 µM and inactive = higher.
# How the values were obtained:
# Test in all cases: growth of human tumour cells (NCI), 48 h
# [1] = test system: MCF7
# [2] = test system: HOP-92
# [3] = test system: UACC-62
# [4] = test system: RPMI-8226
# [5] = test system: UO-31
# [6] = test system: MDA-N
# [7] = test system: SNB-19
# [8] = test system: K562
# [9] = test system: A549
# [10] = test system: SF-539
# [11] = test system: RXF 393
# [12] = test system: MOLT-4
# [13] = test system: SNB-75
# [14] = test system: U-251
# [15] = test system: T47D
# [16] = test system: EKVX
# [17] = test system: NCI-H522
# [18] = test system: SK-MEL-5
# [19] = test system: SN12C
# [20] = test system: NCI-H226
Structure (SMILES),GI50 [1],GI50 [2],GI50 [3],GI50 [4],GI50 [5],GI50 [6],GI50 [7],GI50 [8],GI50 [9],GI50 [10],GI50 [11],GI50 [12],GI50 [13],GI50 [14],GI50 [15],GI50 [16],GI50 [17],GI50 [18],GI50 [19],GI50 [20]
CCOC(=O)C(NC(=O)CC)(Nc1ccccc1F)C(F)(F)F (configuration not stated),> 100 µM (inactive),> 100 µM (inactive),42.2 µM (inactive),> 100 µM (inactive),> 100 µM (inactive),> 100 µM (inactive),> 100 µM (inactive),86.9 µM (inactive),> 100 µM (inactive),> 100 µM (inactive),> 100 µM (inactive),> 100 µM (inactive),> 100 µM (inactive),> 100 µM (inactive),38.4 µM (inactive),> 100 µM (inactive),> 100 µM (inactive),68.2 µM (inactive),> 100 µM (inactive),
O=Cc1c2c(cc3c1CC1(C3)Cc3cc4c(c(C=O)c3C1)CCCC4)CCCC2,> 31.6 µM (inactive),15.5 µM (inactive),> 31.6 µM (inactive),16.8 µM (inactive),,> 31.6 µM (inactive),98.9 µM (inactive),21.1 µM (inactive),21.3 µM (inactive),> 31.6 µM (inactive),> 31.6 µM (inactive),13.3 µM (inactive),> 100 µM (inactive),> 31.6 µM (inactive),> 31.6 µM (inactive),23.9 µM (inactive),14.3 µM (inactive),> 31.6 µM (inactive),> 31.6 µM (inactive),> 31.6 µM (inactive)
CC1OC(OC2C(OC3CCC4(C)C(CCC5(C)C4CC=C4C6CC(C)(C)CCC6(C(=O)O)CCC45C)C3(C)CO)OCC(O)C2O)C(O)C(O)C1O (configuration not stated),0.46 µM (active),10.1 µM (inactive),8.05 µM (inactive),,3.66 µM (inactive),21.1 µM (inactive),15.8 µM (inactive),11.6 µM (inactive),19.1 µM (inactive),15.5 µM (inactive),2.72 µM (inactive),14.6 µM (inactive),14.2 µM (inactive),21.9 µM (inactive),22.1 µM (inactive),20.4 µM (inactive),13.3 µM (inactive),17.8 µM (inactive),21.1 µM (inactive),21.2 µM (inactive)
COc1cc(/C=C2/C[C@H]3[C@@H]4CC=C5C[C@@H](O)CC[C@]5(C)[C@H]4CC[C@]3(C)NC2=O)cc(OC)c1OC,11.8 µM (inactive),3.69 µM (inactive),16.3 µM (inactive),5.46 µM (inactive),9.68 µM (inactive),23 µM (inactive),20.1 µM (inactive),40.3 µM (inactive),15 µM (inactive),30.7 µM (inactive),16 µM (inactive),21.6 µM (inactive),,22.5 µM (inactive),24.2 µM (inactive),15.1 µM (inactive),5.33 µM (inactive),6.7 µM (inactive),7.36 µM (inactive),22 µM (inactive)
CCOc1cc(NC(C)=O)ccc1C(=O)NN1C(=O)C(Cl)C1c1ccccc1 (configuration not stated),7.74 µM (inactive),12.9 µM (inactive),11 µM (inactive),9.95 µM (inactive),3.31 µM (inactive),13.8 µM (inactive),15.1 µM (inactive),5.32 µM (inactive),16.5 µM (inactive),10.9 µM (inactive),13.6 µM (inactive),3.68 µM (inactive),15.6 µM (inactive),,12.5 µM (inactive),14.9 µM (inactive),2.24 µM (inactive),10.1 µM (inactive),13.9 µM (inactive),12.7 µM (inactive)
NNC(=O)c1c(Cl)c(Cl)c(Cl)c(Cl)c1-c1nc2ccccc2[nH]1,2.96 µM (inactive),18.5 µM (inactive),10.4 µM (inactive),7.4 µM (inactive),19.4 µM (inactive),2.94 µM (inactive),19.6 µM (inactive),3.25 µM (inactive),10 µM (inactive),20.4 µM (inactive),3.49 µM (inactive),4.66 µM (inactive),12.5 µM (inactive),,2.47 µM (inactive),12.4 µM (inactive),13.4 µM (inactive),11.2 µM (inactive),27 µM (inactive),16.8 µM (inactive)
Cc1ccc2c3c1O[C@H]1c4nc5ccccc5cc4C[C@@]4(O)[C@@H](C2)N(CC2CC2)CC[C@]314,10.4 µM (inactive),19.9 µM (inactive),9.82 µM (inactive),4.63 µM (inactive),10.4 µM (inactive),11.8 µM (inactive),12.8 µM (inactive),3.31 µM (inactive),6.4 µM (inactive),4.68 µM (inactive),8 µM (inactive),2.5 µM (inactive),,5.74 µM (inactive),15.8 µM (inactive),15.1 µM (inactive),13.7 µM (inactive),7.18 µM (inactive),28.6 µM (inactive),10.6 µM (inactive)
N#CC(=C1CCCCC1)c1nc2ccccc2o1,53.1 µM (inactive),34.5 µM (inactive),68.9 µM (inactive),25.9 µM (inactive),47.2 µM (inactive),74.5 µM (inactive),> 100 µM (inactive),69.8 µM (inactive),51.1 µM (inactive),31.7 µM (inactive),> 100 µM (inactive),> 100 µM (inactive),,57.9 µM (inactive),19.4 µM (inactive),34.5 µM (inactive),20.6 µM (inactive),41.4 µM (inactive),> 100 µM (inactive),56.2 µM (inactive)
COc1ccc([S+]([O-])Cc2cc(OC)ccc2OC)cc1 (configuration not stated),> 100 µM (inactive),> 100 µM (inactive),> 100 µM (inactive),,> 100 µM (inactive),> 100 µM (inactive),> 100 µM (inactive),> 100 µM (inactive),> 100 µM (inactive),> 100 µM (inactive),> 100 µM (inactive),> 100 µM (inactive),> 100 µM (inactive),> 100 µM (inactive),> 100 µM (inactive),> 100 µM (inactive),> 100 µM (inactive),,> 100 µM (inactive),> 100 µM (inactive)
Clc1ccc(CSC2=NCCN2)cc1Cl,11.1 µM (inactive),3.3 µM (inactive),15.9 µM (inactive),6.75 µM (inactive),11.4 µM (inactive),11.7 µM (inactive),32.3 µM (inactive),13.5 µM (inactive),27 µM (inactive),,14.2 µM (inactive),11.2 µM (inactive),,12.5 µM (inactive),7.19 µM (inactive),8.89 µM (inactive),4.5 µM (inactive),12.7 µM (inactive),15.2 µM (inactive),20.7 µM (inactive)
CCCc1nc(Cl)nc(Cl)c1Cl,0.137 µM (active),0.0104 µM (active),0.703 µM (active),0.258 µM (active),,0.0234 µM (active),1.16 µM (inactive),< 0.0343 µM (active),2.22 µM (inactive),1.52 µM (inactive),0.256 µM (active),0.065 µM (active),1.22 µM (inactive),0.67 µM (active),0.857 µM (active),1.03 µM (active),0.374 µM (active),0.935 µM (active),0.726 µM (active),2.35 µM (inactive)
